Measurements published in the supplement of paper PMC10307832.

Columns and labels:
Test in all cases: relative viability (nuclei count vs DMSO), 5 days (fraction); higher = more cells survive
Pimozide = compound: O=c1[nH]c2ccccc2n1C1CCN(CCCC(c2ccc(F)cc2)c2ccc(F)cc2)CC1 [Pimozide]
In short: (§1)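 Lung cancer cell lines were seeded into 1536-well plates, kept overnight at 37 °C and pinned with five library-drug doses (not always all listed) spaced by √10. After 5 days, nuclei were Hoechst-stained, imaged at 4× and counted with MetaXpress. Viability is treated-well nuclei over vehicle-well nuclei, taken as a median across plates. Plates needed control CV below 25% and at least one doubling.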

Docetaxel = compound: CC(=O)O[C@@]12CO[C@@H]1C[C@H](O)[C@@]1(C)C(=O)[C@H](O)C3=C(C)[C@@H](OC(=O)[C@H](O)[C@@H](NC(=O)OC(C)(C)C)c4ccccc4)C[C@@](O)([C@@H](OC(=O)c4ccccc4)[C@H]21)C3(C)C [Docetaxel]
In short: as §1

CPI-613 = compound: O=C(O)CCCCC(CCSCc1ccccc1)SCc1ccccc1 [CPI-613]
In short: as §1

[1] = compound: Cc1cnc(-c2cnc(NCCNc3ccc(C#N)cn3)nc2-c2ccc(Cl)cc2Cl)[nH]1
In short: as §1

Tivozanib = compound: COc1cc2nccc(Oc3ccc(NC(=O)Nc4cc(C)on4)c(Cl)c3)c2cc1OC [Tivozanib]
In short: as §1

JQ1 = compound: Cc1sc2c(c1C)C(c1ccc(Cl)cc1)=N[C@@H](CC(=O)OC(C)(C)C)c1nnc(C)n1-2 [JQ1]
In short: as §1

Cytarabine = compound: Nc1ccn([C@@H]2O[C@H](CO)[C@@H](O)[C@@H]2O)c(=O)n1 [Cytarabine]
In short: as §1

Row | Cell Line | relative viability (Pimozide; 0.08 µM) | relative viability (Pimozide; 0.253 µM) | relative viability (Pimozide; 0.8 µM) | relative viability (Pimozide; 2.53 µM) | relative viability (Pimozide; 8 µM) | relative viability (Docetaxel; 0.0002 µM) | relative viability (Docetaxel; 0.000632 µM) | relative viability (Docetaxel; 0.002 µM) | relative viability (Docetaxel; 0.006325 µM) | relative viability (Docetaxel; 0.02 µM) | relative viability (CPI-613; 5 µM) | relative viability (CPI-613; 15.81 µM) | relative viability (CPI-613; 50 µM) | relative viability (CPI-613; 158.11 µM) | relative viability (CPI-613; 500 µM) | relative viability ([1]; 0.08 µM) | relative viability ([1]; 0.253 µM) | relative viability ([1]; 0.8 µM) | relative viability ([1]; 2.53 µM) | relative viability (Tivozanib; 0.005 µM) | relative viability (Tivozanib; 0.01581 µM) | relative viability (Tivozanib; 0.05 µM) | relative viability (Tivozanib; 0.1581 µM) | relative viability (Tivozanib; 0.5 µM) | relative viability (JQ1; 0.04 µM) | relative viability (JQ1; 0.1265 µM) | relative viability (JQ1; 0.4 µM) | relative viability (JQ1; 1.265 µM) | relative viability (JQ1; 4 µM) | relative viability (Cytarabine; 0.005 µM) | relative viability (Cytarabine; 0.01581 µM) | relative viability (Cytarabine; 0.05 µM) | relative viability (Cytarabine; 0.1581 µM) | relative viability (Cytarabine; 0.5 µM)
1 | NCI-H727 | 0.849 | 0.864 | 0.998 | 0.879 | 0.93 | 0.772 | 0.892 | 0.726 | 0.548 | 0.413 | 0.831 | 0.825 | 0.916 | 0.654 | 0.309 | 0.952 | 0.864 | 0.943 | 0.86 | 0.8 | 0.85 | 1.01 | 0.702 | 0.917 | 0.923 | 0.988 | 0.413 | 0.465 | 0.409 | 0.785 | 0.766 | 0.788 | 0.402 | 0.382
2 | NCI-H1648 | 1.01 | 0.641 | 0.822 | 0.8 | 0.972 | 0.861 | 0.925 | 0.494 | 0.269 | 0.179 | 0.818 | 0.768 | 1.11 | 0.393 | 0.577 | 1.11 | 0.801 | 0.951 | 0.76 | 0.838 | 0.918 | 1 | 0.886 | 0.716 | 0.89 | 0.753 | 0.434 | 0.294 | 0.184 | 0.69 | 0.734 | 0.813 | 0.443 | 0.611
3 | NCI-H2087 | 1.11 | 1.05 |  | 1.05 | 0.773 | 0.947 | 0.5 | 0.223 | 0.182 | 0.107 | 0.971 | 1.09 | 0.954 | 0.307 | 0.0055 | 1.12 | 0.723 | 1.05 | 0.886 | 0.988 | 0.972 | 0.956 | 1.28 | 0.995 | 0.996 | 0.661 | 0.963 | 0.581 | 0.451 | 0.946 | 0.888 | 0.722 | 0.614 | 0.36
4 | EBC-1 | 0.996 | 0.94 | 0.899 | 0.901 | 0.942 | 0.89 | 0.693 | 0.241 | 0.25 | 0.152 | 0.962 | 0.823 | 0.828 | 0.661 | 0.556 | 0.982 | 0.914 | 0.975 | 0.987 | 0.951 | 0.96 | 0.979 | 0.929 | 0.918 | 0.922 | 0.596 | 0.372 | 0.138 | 0.141 | 0.817 | 0.816 | 0.623 | 0.478 | 0.336
5 | SW 1573 | 0.923 | 1.02 | 0.945 | 0.82 | 0.637 | 0.872 | 0.485 | 0.252 | 0.205 | 0.152 | 0.917 | 0.851 | 0.958 | 0.482 | 0.314 | 1.1 | 0.999 | 0.997 | 0.6 | 0.969 | 0.914 | 1.01 | 0.903 | 0.829 | 0.869 | 0.791 | 0.637 | 0.365 | 0.345 | 0.969 | 0.87 | 0.725 | 0.38 | 0.157
6 | COR-L 105 |  | 1.1 | 0.907 | 0.862 | 0.838 | 0.86 | 0.811 | 0.536 | 0.418 | 0.302 | 0.853 | 0.872 | 0.839 | 0.364 | 0.29 | 0.991 | 0.887 | 0.868 | 0.563 | 0.901 | 0.914 | 0.93 | 0.843 | 0.859 | 0.684 | 0.607 | 0.38 | 0.352 | 0.33 | 0.905 | 0.81 | 0.627 | 0.448 | 0.386
7 | A549 | 0.96 | 0.89 | 0.981 | 0.952 | 0.874 | 0.914 | 0.68 | 0.0907 | 0.0644 | 0.0347 | 0.973 | 0.911 | 0.978 | 0.624 | 0.647 | 1.06 | 0.957 | 0.945 | 0.958 | 0.939 | 0.99 | 0.994 | 0.942 | 0.944 | 0.953 | 0.912 | 0.909 | 0.686 | 0.363 | 0.861 | 0.682 | 0.391 | 0.101 | 0.0441
8 | EMC-BAC-2 | 0.969 | 0.933 | 0.884 | 0.933 | 0.955 | 0.905 | 0.736 | 0.483 | 0.304 | 0.268 | 0.973 | 0.875 | 0.982 | 0.782 | 0.189 | 1.02 | 0.96 | 0.923 | 0.897 | 0.935 | 1.06 | 1 | 0.752 | 0.792 | 0.922 | 0.667 | 0.842 | 0.519 | 0.48 | 1.04 | 0.866 | 0.492 | 0.349 | 0.257
9 | HCC-44 | 0.986 | 0.95 | 0.876 | 0.911 | 0.952 | 0.956 | 0.949 | 0.587 | 0.296 | 0.198 | 1.01 | 0.958 | 1.03 | 0.869 | 0.51 | 0.986 | 0.867 | 1.07 | 1.08 | 0.936 | 0.949 | 0.976 | 1.02 | 0.87 | 0.977 | 0.776 | 0.778 | 0.438 | 0.308 | 0.989 | 0.882 | 0.643 | 0.614 | 0.356
10 | NCI-H1650 | 0.719 | 0.893 | 0.883 | 0.887 | 0.809 | 0.705 | 0.37 | 0.301 | 0.205 | 0.146 | 0.877 | 0.776 | 0.942 | 0.137 | 0.0508 | 1 | 0.812 | 0.904 | 0.761 | 0.786 | 0.964 | 0.941 | 0.946 | 0.779 | 0.808 | 0.68 | 0.578 | 0.217 | 0.21 | 0.793 | 0.633 | 0.514 | 0.224 | 0.225
11 | NCI-H1651 | 0.977 | 1 | 0.964 | 0.913 | 0.973 | 0.858 | 0.979 | 0.671 | 0.198 | 0.14 | 0.995 | 0.947 | 0.93 | 0.769 | 0.527 | 0.975 | 0.924 | 0.982 | 1.02 | 0.941 | 0.951 | 1.05 | 0.882 | 0.98 | 0.908 | 0.838 | 0.708 | 0.606 | 0.546 | 1.07 | 0.972 | 0.986 | 0.664 | 0.476
12 | LCLC-103H | 0.975 | 0.905 | 0.911 | 0.969 | 0.963 | 0.973 | 1.09 | 0.903 | 0.502 | 0.458 | 0.999 | 0.95 | 0.99 | 0.854 | 0.773 | 1.03 | 0.865 | 0.989 | 0.952 | 0.996 | 0.995 | 1.06 | 0.982 | 0.994 | 0.979 | 0.83 | 0.906 | 0.658 | 0.427 | 0.912 | 0.991 | 1.01 | 0.965 | 0.894
13 | NCI-H1755 | 0.916 | 0.967 | 0.946 | 0.929 | 0.892 | 0.984 | 0.941 | 0.724 | 0.459 | 0.411 | 0.937 | 0.958 | 0.942 | 0.973 | 0.49 | 1.04 | 0.831 | 1.03 | 1.08 | 0.991 | 0.961 | 1.01 | 1.02 | 0.917 | 0.984 | 0.819 | 1.04 | 0.966 | 0.836 | 1.04 | 0.97 | 0.864 | 0.548 | 0.404
14 | HCC-827 |  | 1.04 | 0.955 | 1.02 | 1.01 | 0.943 | 1.07 | 0.916 | 0.431 | 0.328 | 0.993 | 1.02 | 1.11 | 0.908 | 0.669 | 1.05 |  | 1.02 | 1.02 | 1.01 | 1.05 | 1.1 | 1.09 | 1 | 1.05 |  | 0.988 | 1.11 | 0.883 | 0.765 | 0.568 | 0.417 | 0.225 | 0.196
15 | PC-14 |  | 0.965 | 0.851 | 0.915 | 0.987 | 0.941 | 0.742 | 0.209 | 0.081 | 0.0432 | 0.956 | 0.9 | 0.941 | 0.685 | 0.595 | 1.07 | 0.861 | 1.04 | 0.867 | 0.924 | 1.05 | 1.06 | 1.03 | 0.927 | 0.971 | 0.684 | 0.652 | 0.333 | 0.22 | 0.881 | 0.922 | 0.565 | 0.174 | 0.127
16 | LU99A | 0.907 | 0.938 | 0.858 | 0.893 | 1 | 0.997 | 0.83 | 0.478 | 0.395 | 0.203 | 0.896 | 0.886 | 0.832 | 0.756 | 0.279 | 1.06 | 0.939 | 1.04 | 0.963 | 0.987 | 0.849 | 0.942 | 0.751 | 0.952 | 0.847 | 0.667 | 0.82 | 0.542 | 0.32 | 1.06 | 0.825 | 0.905 | 0.886 | 0.929
